# “And” between values parts separate entries of the source, which are not always exact repeats. Identical values can stand only once.
# Experiments:
# SARS-CoV-2 virus = assay: Prophylactic treatment of a patient susceptible to COVID-19; format: in vivo; conditions: human patient at risk, daily for 21 days beginning one week prior to possible exposure
# SARS CoV-2 = assay: Antiviral efficacy of GC376 and REMDESIVIR in golden Syrian hamsters challenged intranasally with SARS-CoV-2, IP; format: in vivo, golden Syrian female hamsters; conditions: for body weights: IP injection for eight days, versus control animals with SARS-CoV-2 alone; for lung PFU: lung samples, days 4 and 14
# From the text: The animals were sacrificed at days 4, 8, or 14 following initiation of the experiment and the various tissues were then collected for analysis. Detailed experimental design and experimental parameters can be found in FIG. 9A, FIG. 9B, and FIG. 10.
# [1] = tested on: COVID-19/SARS-CoV-2 virus; format: cell-based
# [2] = tested on: 17 coronavirus proteases from human and animal coronaviruses; format: cell-based
# [3] = tested on: SARS-CoV-2 viral infection; assay: Treatment of a patient suffering from COVID-19; format: in vivo; conditions: human patient, intravenous, subcutaneous, or oral, daily for 21 days
# SARS-CoV-2 [4] = assay: Antiviral efficacy in hamsters challenged intranasally with SARS-CoV-2, S.C. GC376; format: in vivo, hamster; conditions: for trachea PFU: trachea samples
# From the text: The hamsters were sacrificed and various tissues were collected for analysis.
# SARS-CoV-2 [5] = assay: microbe, parasite or virus in culture; format: cell-based; conditions: Severe acute respiratory syndrome coronavirus 2; SARS-CoV-2 infected cells, dose response FIG. 3; read-out: EC50 against SARS-CoV-2
# [6] = CC50 in the structure table of GC543 and GC583 (no method given); format: cell-based; conditions: cells not given
structure (smiles),measurement,setting,value
CC(C)C[C@H](NC(=O)OCc1ccccc1)C(=O)N[C@@H](C[C@@H]1CCNC1=O)C(O)S(=O)(=O)[O-].[Na+] (stereo partly drawn) [GC376],outcome after prophylactic treatment,SARS-CoV-2 virus,not have developed COVID-19 or a SARS-CoV-2 infection
same,body weights,SARS CoV-2,maintained similar body weights to the control animals
same,lung PFU,SARS CoV-2,reduction of PFU at days 4 and 14
same,lowering of virus titer,[1]; 5 μM GC376 versus virus solution without GC376,approximately 15 fold
same,"PFU/ml, average","[1]; virus solution with 5 μM GC376, average of three replicate plates",2.1×10^6 pfu/ml
same,"PFU/ml, each replicate plate","[1]; virus solution with 5 μM GC376, individual plates",2.75×10^6 pfu/ml and 2.25×10^6 pfu/ml and 1.30×10^6 pfu/ml
same,activity against coronavirus proteases,[2],"activity across all coronaviruses tested, including SARS-CoV-2"
same,outcome after 21 days of treatment,[3],recovered from the SARS-CoV-2 infection
same,body weight at 10 mg/kg/day and 25 mg/kg/day,"SARS-CoV-2 [4]; 10 mg/kg/day and 25 mg/kg/day, versus infected controls without GC376","appeared to lose more weight initially, but by the eighth day following initiation of the experiment had a body weight that was similar to the control animals"
same,lung PFU versus control,SARS-CoV-2 [4]; 100 mg/kg/day cohort,"had fewer PFUs in their lungs than the control animal, although two animals had more PFUs than the control"
same,body weights of individual hamsters,"SARS-CoV-2 [4]; each individual hamster, days 0-8, any dose",trend show for each animal to regain its normal body weight
same,trachea PFU,SARS-CoV-2 [4]; 100 mg/kg/day group,did show noticeable PFU formation from trachea samples
same,trachea PFU,SARS-CoV-2 [4]; all groups,most of the animals did not show PFUs from samples taken from the trachea
same,EC50,SARS-CoV-2 [5],~0.81 µM
O=C[C@@H](C[C@@H]1CCNC1=O)NC(=O)[C@H](CC1CCCCC1)NC(=O)OCc1ccccc1 [GC543],CC50,[6],> 100 µM
O=C[C@@H](C[C@@H]1CCNC1=O)NC(=O)[C@H](CC1CCCCC1)NC(=O)OCc1cccc(Cl)c1 [GC583],CC50,[6],> 100 µM
CCC(CC)COC(=O)[C@H](C)N[P@](=O)(OC[C@H]1O[C@@](C#N)(c2ccc3c(N)ncnn23)[C@H](O)[C@@H]1O)Oc1ccccc1 [reference compound],body weights,SARS CoV-2,maintained similar body weights to the control animals
same,lung PFU,SARS CoV-2,reduction of PFU at days 4 and 14

# — patent publication US20210292277A1 (priority 2020, published 2021)
